One experiment concerns the target T1, NKG2D-Fc (Homo sapiens, UniProt P26718).
T1 construct: the extracellular domain of NKG2D was fused with an IgG Fc fragment; made in house; host or cells: CHO cells
T1 sequence (P26718 73-216 limits assumed): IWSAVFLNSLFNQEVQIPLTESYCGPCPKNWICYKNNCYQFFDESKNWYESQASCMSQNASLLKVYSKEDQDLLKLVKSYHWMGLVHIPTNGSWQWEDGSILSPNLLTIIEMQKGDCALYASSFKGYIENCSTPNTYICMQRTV
Briefly: ELISA affinity against NKG2D-Fc. It counts as binding. The settings on record: FITC derivatives; read-out: dissociation constant (KD) against NKG2D-Fc by ELISA. The method, then:
Selection results were decoded with C++^[ [61] ^] and visualized using MATLAB R2019b (MathWorks). EFs were calculated by dividing the DNA sequence counts for each hit compound by the average DNA sequence count from the corresponding DEL screening. Additionally, Z‐score values were calculated following methods previously published,^[ [60] ^] as present in Supporting Information. Hit compounds with high EFs in the target protein selections and low EFs in the negative controls (anti‐target and streptavidin selections) were selected for hit validation activities. All compounds were synthesized using either solid‐phase peptide synthesis or solution‐phase methodologies. Affinities of fluorescein‐bearing hits were determined by FP or ELISA measurements. […] ACP3 colorimetric inhibition assay was performed with serially diluted compounds at a fixed concentration (5 mM in PBS) of para‐nitrophenyl phosphate as substrate. Binding kinetics were assessed on a Biacore X100 instrument with the target protein immobilized on a CM5 chip at 4′000 RUs. Cell binding of fluorescent ligands was evaluated using flow cytometry against antigen‐positive and antigen‐negative (wild‐type) cancer cells. in vitro tissue uptake of ^177Lu‐labelled DOTAGA PSMA‐radioligands was measured via autoradiography. […]
Grenier 384 transparent, flat-bottom well plates were used. Each test compound was measured in triplicate. […]
In general terms: In an ELISA, binding on a coated surface is turned into a signal by an enzyme label.

Experiment [1] concerns various unrelated proteins, including TAAs and serological proteins. Briefly: ELISA against multiple proteins (specificity). It counts as binding. The method, then:
2.13 ACP3 colorimetric enzymatic assay
Grenier 384 transparent, flat-bottom well plates were used. Each test compound was measured in triplicate. 16 µL of a solution of the compound (3µM, 5% DMSO in PBS for small molecules or PBS only for DNA-conjugates, pH 7.4) was loaded into the first well row. A serial 1:2 (on DNA) or 1:3 (off DNA) dilution in DMSO/PBS (5/95, off DNA) or only PBS (on DNA) was performed in a total volume per well of 8 µL. Human recombinant ACP3 (16 µL solution, 2.5 nM in PBS, pH 7.4) was added to each well.
After 10 min of incubation, 16 µL of a solution of para-nitrophenyl phosphate (pNPP, substrate, 5 mM in PBS, pH 7.4) was added. The plate was left to develop in the dark for 16 hours. Enzymatic reaction on the substrate (phosphate group removal by ACP3) was assessed by measuring absorption at 405 vs 620 nm on a Spectra Max Paradigm multimode plate reader ([…]).
2.14 Surface plasmon resonance (SPR)
SPR measurements were performed on a Biacore X100. […]
The protein (100 μL/well, 170 nM) was incubated for 2 h at 4 °C on a StreptaWell plate (transparent 96 - well plate, Roche #11645692001). […] The absorbance was measured at 450 nm (reference level, 620–650 nm) with a Spark multimode microplate reader (Tecan Life Sciences). […]

Each structure is given as a SMILES string.

In general, Kd refers to a measure of binding affinity in units of concentration.

Turning to `CC(C)Oc1ccc(-c2cccc(C[C@H](NC(=O)c3ccccc3-c3ccc(C(F)(F)F)cc3)C(=O)N[C@@H](CCCCNC(=S)Nc3ccc4c(c3)C(=O)OC43c4ccc(O)cc4Oc4cc(O)ccc43)C(=O)O)c2)c(F)c1` [compound 30], the equilibrium dissociation constant (Kd) on NKG2D-Fc was determined as 133 nM. Also, in experiment [1], the “selectivity by ELISA against multiple proteins” value was “high selectivity over various unrelated proteins”.

The values are drawn from paper PMC12463120, “Phenylalanine‐Based DNA‐Encoded Chemical Libraries for the Discovery of Potent and Selective Small Organic Ligands Against Markers of Cancer and Immune Cells” (Advanced Science, 2025).
